A short description of data set [1]: DBP products in mice liver mitochondria before and after DBPs treatment, HPTLC. In kind it is in vivo, Swiss Albino mice. Particulars: one hour after i.p. 4:1 mixture of 3,8-(OH)2-DBP and 3-OH-DBP 20 mg/Kg. The procedure:
Mitochondria were isolated from heart and liver of chicken, goat and mice following a published procedure (Liu Y, Deng F, Zhao R and Qu S, Chemosphere, 40(8):851-854, 2000). […] The tissue was cut into small pieces, homogenized and centrifuged at 900 g for one minute. The supernatant was again centrifuged twice, for 20 minutes each time at 900 g. The sediment at each step was discarded. The clear supernatant was centrifuged twice at 12,000 g, 20 minutes each time, to form pellets of a mitochondria-enriched fraction. The fraction was divided into two parts. One part was resuspended in a measured volume of distilled water and sonicated (10 min×2). […] The two extracts were subjected to comprehensive HPTLC and HPLC analyses for detection and quantitation of DBPs and their equivalents. […] One hour after administration the animals were sacrificed and mitochondria from liver were isolated and analyzed as described for Example 6. […] Mobile Phase—Chloroform:Methanol 90:10 Sample application—CAMAG LINOMAT 5 (Automated applicator) Detection—240 nm (CAMAG TLC SCANNER 3) 3-OH-DBP and 3,8-(OH)2-DBP (and their conjugates) were detected in mitochondria of control mice by HPTLC. Administration of DBPs to the animals increased the amount of DBPs and its products in mitochondria as detected by using authentic markers of the two DBPs (Table 2).

A short description of data set [2]: Stability of reduced CoQ10 (CoQH2) by 3,8-(OH)2-DBP at different pH, HPLC. In kind it is physicochemical.
Assay in data set [3]: as above
It counts as physicochemical. Particulars: for Reduced CoQ10 remaining in control: no DBP. The procedure: Two mg of solid CoQ10 (SRL, India), in an airtight vial was dissolved in 1 ml of methanol. After thorough vortexing, 5 mg of solid NaBH4 (Merck India) was added, 1 mg at a time, to the yellow colored solution of CoQ10 in methanol and kept in an ice-bath for a few minutes. The vial was kept shut to avoid contact with air but opened occasionally to avoid generation of pressure inside due to accumulation of hydrogen. After the reduction reaction, a clear colorless solution was obtained to which methanolic solution of 3,8-(OH)2-DBP with a concentration of 1 mg/ml (>90% pure) was added in a ratio of 1:1 to obtain a final concentration of the mixture—reduced CoQ10 […] DBP 0.5 mg/ml. This solution was analyzed by HPLC for reduced CoQ10 content at different time intervals. A control was prepared in similar fashion except that no DBP was added. The pH of the solutions was determined to be 8 using pH paper. To obtain solutions of reduced CoQ10 with pH 7 and pH 3, aliquots of concentrated HCl were added to the methanolic solution of reduced CoQ10 at pH 8. Afterwards, a solution of DBP was added and analysis by HPLC at different time intervals was conducted, as before.
(§1) Mobile phase—Methanol:Acetonitrile:Ethanol 30:30:40
Detection—PDA 290 nm for reduced CoQ10

The nature of data set [4]: Inhibition of CoQ-CoQH2 aberrant metabolite formation during red-ox recycling, HPLC. The following applies: in vitro. In kind it is physicochemical. As to the method: Methanolic solution of coenzyme Q10 (1 mg/ml) was reduced by NaBH4 to pH 8 when the yellow solution became colorless. About 1 mg of 3,8-(OH)2-DBP was added to the solution and the mixture was analyzed by HPLC at different time intervals (0-80 min). A control CoQ10, without 3,8-(OH)2-DBP, was prepared similarly and analyzed at different time intervals (0-80 min).
Column—NovaPak RP C18 [250×4 mm]
as §1
Detection—PDA 275 nm for CoQ10
Reduced CoQ10 (CoQH2) has a tendency to rapidly autoxidize in the presence of air. […] The aberrant metabolites increased rapidly with time (Table 10).

The values that follow come from patent publication US8894993B2, “Mitochondria-targeted antioxidants” (Natreon Inc., priority 2006, dated 2014).

Turning to `O=c1oc2cc(O)ccc2c2cc(-c3cc4c(cc3O)c(=O)oc3cc(O)ccc34)c(O)cc12` [3,8-(OH)2-DBP-dimer, 3,3′,8,8′-tetrahydroxy-9,9′-bis-dibenzo-α-pyrone], the “Amount in mitochondria after DBP treatment” value in data set [1] amounted to 28.6 nmol/gm wet wt.
For the compound `COc1c(O)c(C)c(C/C=C(\C)CC/C=C(\C)CC/C=C(\C)CC/C=C(\C)CC/C=C(\C)CC/C=C(\C)CC/C=C(\C)CC/C=C(\C)CC/C=C(\C)CCC=C(C)C)c(O)c1OC` [Reduced CoQ10, reference compound], the “Regenerated CoQ10 in absence of 3,8-(OH)2-DBP” value is 5.49 µg/mL in data set [2] (autoxidation of CoQH2, pH 8, 20 min); 72.98 µg/mL in data set [2] (autoxidation of CoQH2, pH 8, 40 min); 0 µg/mL in data set [3] (autoxidation of CoQH2, pH 8, 0 min); 184.68 µg/mL in data set [3] (autoxidation of CoQH2, pH 8, 60 min); 202.28 µg/mL in data set [3] (autoxidation of CoQH2, pH 8, 80 min); 109.23 µg/mL in data set [3] (autoxidation of CoQH2, pH 8, 100 min). Further, the “Reduced CoQ10 remaining in control” value in data set [3] (pH 3, 0 hour) was found to be 100.00%; in data set [3] (pH 3, 48 hour), 57.25%; in data set [3] (pH 3, 72 hour), 61.95%; in data set [3] (pH 7, 0 hour) it was 100.00%; in data set [3] (pH 7, 48 hour), 7.73%; in data set [3] (pH 7, 72 hour) it was 3.70%. Further, the “Reduced CoQ10 remaining in control” value in data set [3] (pH 8, 0 min, methanol) turned out to be 100.00%; in data set [3] (pH 8, 40 min, methanol) it was 79.18%; in data set [3] (pH 8, 60 min, methanol), 54.09%; in data set [3] (pH 8, 80 min, methanol) it was 33.17%; in data set [3] (pH 8, 100 min, methanol), 20.87%. The “Relative percentage of aberrant metabolites in absence of 3,8-(OH)2-DBP” value in data set [4] (pH 8, 0 minutes) was 0%; in data set [4] (pH 8, 40 minutes) it was 93%; in data set [4] (pH 8, 80 minutes), 96%.
